In US20210040062A1, “AZOLE-SUBSTITUTED PYRIDINE COMPOUND” (TAISHO PHARMACEUTICAL CO., LTD., priority 2016, published 2021):

Tests used:
[1] = target: T1, human CYP4A11 (Homo sapiens, UniProt Q02928); experiment: CYP4A11 inhibition test (Test Example 1); type: biochemical; conditions: Escherichia coli membrane fraction expressing human CYP4A11, 60 μM luciferine derivative, room temperature 60 minutes, luminescence
T1 construct: host or cells: Escherichia coli (membrane fraction)
T1 sequence (Q02928 5-519): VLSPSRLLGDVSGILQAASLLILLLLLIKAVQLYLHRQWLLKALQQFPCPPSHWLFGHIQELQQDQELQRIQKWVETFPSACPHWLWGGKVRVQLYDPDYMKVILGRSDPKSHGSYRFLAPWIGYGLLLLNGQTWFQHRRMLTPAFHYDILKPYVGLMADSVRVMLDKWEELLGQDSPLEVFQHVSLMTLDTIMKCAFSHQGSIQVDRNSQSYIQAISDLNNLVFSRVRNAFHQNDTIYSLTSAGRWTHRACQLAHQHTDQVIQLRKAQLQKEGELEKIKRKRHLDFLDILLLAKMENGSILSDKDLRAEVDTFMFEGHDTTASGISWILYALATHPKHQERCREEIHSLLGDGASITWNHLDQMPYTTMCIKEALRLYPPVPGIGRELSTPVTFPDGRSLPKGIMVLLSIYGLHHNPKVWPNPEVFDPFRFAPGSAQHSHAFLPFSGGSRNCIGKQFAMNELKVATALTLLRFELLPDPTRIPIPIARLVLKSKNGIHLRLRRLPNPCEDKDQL
Protocol: (§1) (1) Inhibition Test for Each Compound of the Present Invention Against 20-HETE Producing Enzymes (CYP4F2 and CYP4A11)
(§2) In the CYP4F2 inhibition test, the reaction solution containing each compound [final concentration of 50 mM, KPO4 (pH 7.4), 2.5 μM, luciferine derivative and 1 mM NADPH] was added to an Escherichia coli membrane fraction (100 μg/mL, protein) in which human CYP4F2 had been expressed. In the CYP4A11 inhibition test, the reaction solution containing each compound [final concentration of 100 mM, Tris-HCl (pH 7.5), 60 μM, luciferine derivative, 1.3 mM NADP^+, 3.3 mM Glucose 6-Phosphate, 3.3 mM MgCl2 and 0.4 U/mL Glucose 6-Phosphate dehydrogenase] was added to an Escherichia coli membrane fraction (100 μg/mL, protein) in which human CYP4A11 had been expressed. Following this, the membrane fraction was left to stand at room temperature for 60 minutes to perform an enzymatic reaction. After the reaction, a luciferine detection reagent was added, and the luminescence value was measured using a plate reader.
(§3) A: Luminescence value with addition of compound
(§4) B: Luminescence value without addition of compound and enzyme
(§5) C: Luminescence value without addition of compound

[2] = target: T2, human CYP4F2 (Homo sapiens, UniProt P78329); experiment: CYP4F2 inhibition test (Test Example 1); type: biochemical; conditions: Escherichia coli membrane fraction expressing human CYP4F2, 2.5 μM luciferine derivative, room temperature 60 minutes, luminescence
T2 construct: host or cells: Escherichia coli (membrane fraction)
T2 sequence (P78329 5-520): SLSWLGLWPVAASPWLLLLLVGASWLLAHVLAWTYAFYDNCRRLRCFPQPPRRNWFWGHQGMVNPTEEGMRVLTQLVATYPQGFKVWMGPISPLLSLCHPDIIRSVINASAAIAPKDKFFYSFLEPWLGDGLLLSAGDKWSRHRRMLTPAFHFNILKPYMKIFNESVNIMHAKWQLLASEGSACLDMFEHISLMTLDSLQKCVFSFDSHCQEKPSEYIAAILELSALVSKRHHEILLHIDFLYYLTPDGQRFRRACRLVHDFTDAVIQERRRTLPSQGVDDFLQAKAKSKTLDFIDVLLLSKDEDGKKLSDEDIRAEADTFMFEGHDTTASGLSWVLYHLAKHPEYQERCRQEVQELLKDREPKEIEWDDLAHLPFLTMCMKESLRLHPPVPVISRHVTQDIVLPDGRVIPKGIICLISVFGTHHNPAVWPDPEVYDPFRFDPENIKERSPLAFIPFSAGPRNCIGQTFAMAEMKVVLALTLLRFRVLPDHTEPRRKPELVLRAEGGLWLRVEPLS
Protocol: as §1, §2, §3, §4, §5

Row | Structure (SMILES) | IC50 [1] [nM] | IC50 [2] [nM]
1 | CC(C)NC(=O)CC(=O)N1CCC[C@@H](COc2ccc(-c3ccn[nH]3)nc2)C1 [Example 2-18] | 1800 | 2900
2 | CC(C)C(=O)N1CCC(CCOc2ccc(-c3ccn[nH]3)nc2)CC1 [Example 4-2] | 380 | 50
3 | COCCOC(=O)NCCC(=O)N1CCC[C@@H](COc2ccc(-c3ccn[nH]3)nc2)C1 [Example 1-34] | 310 | 79
4 | CC(=O)N(C)[C@H]1C[C@H](COc2ccc(-c3ccn[nH]3)nc2)C1 [Example 17-1-2, N-Methyl-N-[trans-3-({[6-(1H-pyrazol-5-yl)pyridin-3-yl]oxy}methyl)cyclobutyl]acetamide] | 2700 | 19
5 | O=C(CN1CCCOC1=O)N1CCC[C@@H](COc2ccc(-c3ccn[nH]3)nc2)C1 [Example 3-39] | 3400 | 3500
6 | O=C(CC1CCS(=O)(=O)C1)N1CCC[C@@H](COc2ccc(-c3ccn[nH]3)nc2)C1 (some centres unmarked) [Example 3-13] | 1500 | 280
7 | O=C(CCS(=O)(=O)C(F)(F)F)N1CCC[C@@H](COc2ccc(-c3ccn[nH]3)nc2)C1 [Example 3-36] | 710 | 90
8 | O=C(C1CCC1)N1CCC(COc2ccc(-c3ccn[nH]3)nc2)CC1 [Example 2-3] | 360 | 76
9 | CC(C)OC(=O)NCCS(=O)(=O)N1CCC[C@@H](COc2ccc(-c3ccn[nH]3)nc2)C1 [Example 1-23] | 26 | 26
10 | COC(=O)N1CCC(COc2ccc(-c3ccn[nH]3)nc2)CC1 [Example 1-3] | 310 | 73
11 | NC(=O)COc1ccc(C(=O)N2CCC[C@@H](COc3ccc(-c4ccn[nH]4)nc3)C2)cc1 [Example 3-25] | 560 | 110
12 | CC(=O)NCC(=O)N1CCC[C@@H](COc2ccc(-c3ccn[nH]3)nc2)C1 [Example 3-15] | 1200 | 7100
13 | CC(C)OC(=O)N1CC(S(=O)(=O)N2CCC[C@H](COc3ccc(-c4ccn[nH]4)nc3)C2)C1 [Example 1-18] | 82 | 3.6
14 | CCOC(=O)NCCS(=O)(=O)N1CCC[C@@H](COc2ccc(-c3ccn[nH]3)nc2)C1 [Example 1-24] | 35 | 40
15 | O=C(N1CCC(COc2ccc(-c3ccn[nH]3)nc2)CC1)N1CCCS1(=O)=O [Example 6-5] | 2000 | 720
16 | O=C(CC(=O)N1CCC[C@@H](COc2ccc(-c3ccn[nH]3)nc2)C1)N1CCCC1 [Example 2-16] | 7600 | 3600

Next, values leading:

Row | IC50 [1] [nM] | IC50 [2] [nM] | Structure (SMILES)
17 | 18 | 140 | CN(C)S(=O)(=O)c1cc(COc2ccc(-c3ccn[nH]3)nc2)ccc1F [Example 18-1, 2-Fluoro-N,N-dimethyl-5-({[6-(1H-pyrazol-5-yl)pyridin-3-yl]oxy}methyl)benzene-1-sulfonamide]
18 | 120 | 210 | CN(C)S(=O)(=O)N1CC[C@@H](COc2ccc(-c3ccn[nH]3)nc2)C1 [Example 10-12]
19 | 770 | 1700 | CS(=O)(=O)c1cccc(COc2ccc(-c3[nH]ncc3C#N)nc2)c1 [Example 48-2, 5-{5-[(3-Methylsulfonylphenyl)methoxy]pyridin-2-yl}-1H-pyrazole-4-carbonitrile]
20 | 22 | 3.7 | O=S(=O)(N1CCCCC1)N1CCC[C@H](COc2ccc(-c3ccn[nH]3)nc2)C1 [Example 10-11]
21 | 350 | 24 | Fc1ccc(COc2ccc(-c3ccn[nH]3)nc2)cc1F [54-4]
22 | 340 | 1500 | CS(=O)(=O)c1cccc(COc2ccc(-c3ncn[nH]3)nc2)c1 [Example 46-2]
23 | 640 | 10 | CC(=O)N1CCC(C)(COc2ccc(-c3ccn[nH]3)nc2)CC1 [Example 13-2]
24 | 1600 | 240 | CC(=O)N1CC[C@H](COc2ccc(-c3ccn[nH]3)nc2)C1 [Example 20-2]
25 | 170 | 19 | Clc1ccc(COc2ccc(-c3ccn[nH]3)nc2)cc1Cl [54-7]
26 | 1200 | 33 | CC(C)c1ccc(COc2ccc(-c3ccn[nH]3)nc2)cc1 [54-14]
27 | 170 | 130 | CC(C)S(=O)(=O)N1CC[C@@H](COc2ccc(-c3ccn[nH]3)nc2)C1 [Example 10-13]
28 | 65 | 140 | CS(=O)(=O)c1cccc(COc2ccc(-c3ccns3)nc2)c1 [Example 42-2]
29 | 160 | 320 | CN(C)S(=O)(=O)N1CC[C@H](COc2ccc(-c3ccn[nH]3)nc2)C1 [Example 10-14]
30 | 270 | 31 | Cc1ccc(COc2ccc(-c3ccn[nH]3)nc2)cc1S(C)(=O)=O [Example 14-12]
31 | 55 | 26 | CC(=O)N1CCC(COc2ccc(-n3cncn3)nc2)CC1 [Example 45-3]
32 | 52 | 61 | Clc1cn[nH]c1-c1ccc(OCC2CCOCC2)cn1 [Example 23-5]
33 | 2400 | 40 | Cc1ccc(S(=O)(=O)c2ccc(COc3ccc(-c4ccn[nH]4)nc3)cc2)cc1 [Example 25-21]

Row | IC50 [1] [nM] | IC50 [2] [nM] | Structure (SMILES)
34 | 93 | 51 | Cc1cn[nH]c1-c1ccc(OC[C@@H]2CCN(S(=O)(=O)C3CC3)C2)cn1 [Example 10-21]
35 | 6300 | 440 | CC(C)(C)c1ccc(COc2ccc(-c3ccn[nH]3)nc2)cc1 [54-15]
36 | 1300 | 250 | CC(=O)N1CCC(COc2ccc(-c3ncn[nH]3)nc2)CC1 [Example 43-2]
37 | 1200 | 14 | FC(F)(F)c1ccc(COc2ccc(-c3ccn[nH]3)nc2)cc1 [Example 25-20]
38 | 420 | 3500 | O=S1(=O)CCCC(CCOc2ccc(-c3cn[nH]c3)nc2)C1 (centres unmarked) [Example 43-6]
39 | 63 | 260 | CS(=O)(=O)c1cccc(COc2ccc(-c3ccn[nH]3)nc2)c1 [Example 18-8, 5-[(3-Methylsulfonylphenyl)methoxy]-2-(1H-pyrazol-5-yl)pyridine]
40 | 490 | 890 | c1cc(-c2ccc(OCCC3CCOCC3)cn2)[nH]n1 [Example 13-16]
41 | 1300 | 250 | CC(=O)N1CCC[C@@H](CCOc2ccc(-c3ccn[nH]3)nc2)C1 [Example 13-4]
42 | 100 | 83 | FC(F)(F)Sc1cccc(COc2ccc(-c3ccn[nH]3)nc2)c1 [Example 25-19]
43 | 6400 | 150 | CC(=O)N(C)[C@H]1CC[C@H](Oc2ccc(-c3ccn[nH]3)nc2)CC1 [Example 20-5]
44 | 390 | 350 | CN(C)S(=O)(=O)N1CCC(CCOc2ccc(-c3ccn[nH]3)nc2)CC1 [Example 10-24]
45 | 1300 | 12 | c1cc(-c2ccc(OCc3ccnc(-n4cncn4)c3)cn2)[nH]n1 [Example 25-9]
46 | 53 | 140 | CC(C)c1cccc(COc2ccc(-c3ccn[nH]3)nc2)c1 [53-3]
47 | 1500 | 9.2 | FC(F)(F)Oc1ccc(COc2ccc(-c3ccn[nH]3)nc2)cc1 [Example 25-22]
48 | 12000 | 12000 | CS(=O)(=O)c1cccc(COc2ccc(-c3[nH]ncc3C(F)(F)F)nc2)c1 [Example 40-1, 5-[(3-Methylsulfonylphenyl)methoxy]-2-[4-(trifluoromethyl)-1H-pyrazol-5-yl]pyridine]
49 | 95 | 62 | FC(F)c1cc(COc2ccc(-c3ccn[nH]3)nc2)ccn1 [Example 25-6]
